Laboratory results taken from ChEMBL document CHEMBL5052841, “Usp19 inhibitors for use in therapy” (2020).

Molecular target: T1, Ubiquitin carboxyl-terminal hydrolase 19 (Homo sapiens, UniProt O94966)
T1 sequence (O94966 whole entry): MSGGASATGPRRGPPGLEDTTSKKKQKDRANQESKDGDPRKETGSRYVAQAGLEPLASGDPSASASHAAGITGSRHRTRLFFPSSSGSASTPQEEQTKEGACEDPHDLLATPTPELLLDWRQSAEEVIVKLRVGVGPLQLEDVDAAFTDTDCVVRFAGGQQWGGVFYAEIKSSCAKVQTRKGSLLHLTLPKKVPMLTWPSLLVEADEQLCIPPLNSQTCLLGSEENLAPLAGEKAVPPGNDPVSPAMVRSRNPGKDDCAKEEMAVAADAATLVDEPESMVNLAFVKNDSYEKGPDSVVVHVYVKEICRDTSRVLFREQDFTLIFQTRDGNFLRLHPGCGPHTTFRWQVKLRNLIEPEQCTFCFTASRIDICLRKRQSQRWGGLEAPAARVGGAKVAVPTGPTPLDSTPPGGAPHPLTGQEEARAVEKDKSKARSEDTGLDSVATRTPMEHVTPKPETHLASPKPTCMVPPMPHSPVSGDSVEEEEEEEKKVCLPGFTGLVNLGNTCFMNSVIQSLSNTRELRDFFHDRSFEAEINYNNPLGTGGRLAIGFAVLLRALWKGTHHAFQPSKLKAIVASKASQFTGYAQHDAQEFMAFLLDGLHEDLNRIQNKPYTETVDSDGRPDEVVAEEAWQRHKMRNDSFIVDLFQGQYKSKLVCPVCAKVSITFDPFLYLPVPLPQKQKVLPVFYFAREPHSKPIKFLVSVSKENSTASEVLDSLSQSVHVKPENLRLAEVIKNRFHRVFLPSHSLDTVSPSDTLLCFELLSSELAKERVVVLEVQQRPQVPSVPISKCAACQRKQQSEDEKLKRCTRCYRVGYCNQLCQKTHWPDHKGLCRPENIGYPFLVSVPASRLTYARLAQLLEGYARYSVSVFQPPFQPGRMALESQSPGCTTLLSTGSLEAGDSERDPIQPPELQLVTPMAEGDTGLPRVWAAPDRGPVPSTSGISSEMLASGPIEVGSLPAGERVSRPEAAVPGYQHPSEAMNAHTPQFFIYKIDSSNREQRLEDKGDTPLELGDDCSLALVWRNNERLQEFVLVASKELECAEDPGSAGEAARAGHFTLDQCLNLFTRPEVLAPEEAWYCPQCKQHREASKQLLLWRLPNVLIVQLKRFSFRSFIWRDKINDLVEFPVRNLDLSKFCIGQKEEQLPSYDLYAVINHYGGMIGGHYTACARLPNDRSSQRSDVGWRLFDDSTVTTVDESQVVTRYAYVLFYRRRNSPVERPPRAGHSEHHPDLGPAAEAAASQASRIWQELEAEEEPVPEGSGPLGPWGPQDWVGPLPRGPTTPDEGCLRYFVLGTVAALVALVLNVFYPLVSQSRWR
Test: Inhibition of C-terminal His6-tagged recombinant human USP19 using iso-peptide ubiquitin-Lys-TAMRA as substrate incubated for 30 mins and measured after 90 mins by fluorescent polarization assay

SMILES	IC50 [nM]
CN(C)C(=O)c1cn(C[C@]2(O)CCN(C(=O)[C@H](CO)CC(F)(F)F)CC23CCCC3)c(=O)cc1-c1ccccc1	< 500
C[C@H](CC1CCCCC1)C(=O)N1CC[C@@](O)(Cn2cc(C(=O)N3CCNCC3)c(-c3ccccc3F)cc2=O)C2(CCCC2)C1	< 500
O=C(c1cn(C[C@]2(O)CCN(C(=O)[C@H](CO)CC(F)(F)F)CC23CCCC3)c(=O)cc1-c1ccccc1)N1CCNCC1	< 500
C[C@H](CC1CCCCC1)C(=O)N1CC[C@@](O)(Cn2cc(C(=O)N3CCCC3)c(-c3ccccc3)cc2=O)C(C)(C)C1	< 500
C[C@H](CC(F)(F)F)C(=O)N1CC[C@@](O)(Cn2cnc(-c3ccccc3)cc2=O)C2(CCCC2)C1	< 500
O=C(CCc1ccccc1)N1CCC(O)(Cn2cnc(-c3ccccc3F)cc2=O)CC1	≥ 50000
CN(C)C(=O)c1cn(CC2(O)CCN(C(=O)[C@@H]3C[C@@H]3c3ccccc3)CC23CCCC3)c(=O)cc1-c1ccccc1 (some centres not stated)	< 500
C[C@H](CC1CCCCC1)C(=O)N1CC[C@@](O)(Cn2cc(C(=O)N3CCNCC3)c(-c3ccccc3)cc2=O)C(C)(C)C1	< 500
C[C@H](CC1CCCCC1)C(=O)N1CC[C@@](O)(Cn2cc(C(=O)N3CCC(O)CC3)c(-c3ccccc3)cc2=O)C(C)(C)C1	< 500
C[C@H](CC1CCC1)C(=O)N1CC[C@@](O)(Cn2cc(C(=O)N(C)C)c(-c3ccccc3)cc2=O)C2(CCCC2)C1	< 500
COC[C@H](CC1CCCCC1)C(=O)N1CC[C@@](O)(Cn2cc(C(=O)N(C)C)c(-c3ccccc3)cc2=O)C(C)(C)C1	< 500
CC(C)N(C)C(=O)c1cn(CC2(O)CCN(C(=O)[C@H](C)CC3CCCCC3)CC2(C)C)c(=O)cc1-c1ccccc1 (some centres not stated)	< 500
C[C@H](CC(F)(F)F)C(=O)N1CC[C@@](O)(Cn2cc(C(=O)N3CCOCC3)c(-c3ccccc3)cc2=O)C2(CCCC2)C1	< 500
CN(C)C(=O)c1cn(CC2(O)CCN(C(=O)c3c[nH]nc3-c3ccccc3)CC23CCCC3)c(=O)cc1-c1ccccc1 (configuration not stated)	≤ 5000
C[C@H](CC1CCCCC1)C(=O)N1CC[C@@](O)(Cn2cc(C(=O)N3CCOCC3)c(-c3ccccc3)cc2=O)C2(CCCC2)C1	< 500
C[C@H](CC1CCC1)C(=O)N1CC[C@@](O)(Cn2cc(C(=O)N(C)C)c(-c3ccccc3F)cc2=O)C2(CCCC2)C1	< 500
C[C@H](CC1CCCCC1)C(=O)N1CCC(O)(Cn2cc(C(=O)N3CCOCC3)c(-c3ccccc3)cc2=O)C(C)(C)C1 (some centres not stated)	< 500
